From publication PMC5218480 (PLoS ONE, 2017)

Test system: MV-4-11 cells
Assay: Gene expression microarray analysis (Affymetrix PrimeView) and GSEA
Type: cell-based, human
Parameters: RFU PODN (11730768_x_at) / Fold change /veh PODN (11730768_x_at) / RFU LINC00158 (11744669_a_at) / Fold change /veh LINC00158 (11744669_a_at) / RFU DUSP10 (11751237_a_at) / Fold change /veh DUSP10 (11751237_a_at) / RFU ID3 (11757404_x_at) / Fold change /veh ID3 (11757404_x_at) / RFU PLEKHG5 (11737974_s_at) / Fold change /veh PLEKHG5 (11737974_s_at) / RFU LRRC4B (11730491_at) / Fold change /veh LRRC4B (11730491_at) / RFU GIMAP4 (11747438_a_at) / Fold change /veh GIMAP4 (11747438_a_at) / RFU KRT8 (11758183_x_at) / Fold change /veh KRT8 (11758183_x_at) / RFU CNN1 (11734310_a_at) / Fold change /veh CNN1 (11734310_a_at) / RFU VPS37D (11726825_at) / Fold change /veh VPS37D (11726825_at) / RFU C10orf10 (11716522_x_at) / Fold change /veh C10orf10 (11716522_x_at) / RFU KIR2DL2 /// KIR2DL4 /// KIR2DL5A /// KIR2DL5B /// KIR2DS1 /// KIR2DS2 /// KIR2DS3 /// KIR2DS4 /// KIR3DL3 /// KIR3DL3 /// KIR3DS1 (11738374_at) / Fold change /veh KIR2DL2 /// KIR2DL4 /// KIR2DL5A /// KIR2DL5B /// KIR2DS1 /// KIR2DS2 /// KIR2DS3 /// KIR2DS4 /// KIR3DL3 /// KIR3DL3 /// KIR3DS1 (11738374_at) / RFU C1QL1 (11718748_at) / Fold change /veh C1QL1 (11718748_at) / RFU TMPRSS4 (11747572_a_at) / Fold change /veh TMPRSS4 (11747572_a_at) / RFU HAMP (11756126_x_at) / Fold change /veh HAMP (11756126_x_at) / RFU RNFT2 (11725882_a_at) / Fold change /veh RNFT2 (11725882_a_at) / RFU NR4A2 (11747474_a_at) / Fold change /veh NR4A2 (11747474_a_at) / RFU ABCC12 (11746883_a_at) / Fold change /veh ABCC12 (11746883_a_at) / RFU TMEM136 (11760407_x_at) / Fold change /veh TMEM136 (11760407_x_at) / RFU CLDN22 /// WWC2 (11732394_at) / Fold change /veh CLDN22 /// WWC2 (11732394_at) / RFU HLA-DPB1 (11760878_x_at) / Fold change /veh HLA-DPB1 (11760878_x_at) / RFU SPINT1 (11716480_a_at) / Fold change /veh SPINT1 (11716480_a_at) / RFU GAP43 (11754022_s_at) / Fold change /veh GAP43 (11754022_s_at) / RFU A4GNT (11735810_at) / Fold change /veh A4GNT (11735810_at) / RFU PRB3 (11715151_x_at) / Fold change /veh PRB3 (11715151_x_at) / RFU TUBB4B (11761932_at) / Fold change /veh TUBB4B (11761932_at) / RFU CAPN14 (11732068_a_at) / Fold change /veh CAPN14 (11732068_a_at) / RFU TMCC2 (11721928_a_at) / Fold change /veh TMCC2 (11721928_a_at) / RFU IRGQ (11745062_a_at) / Fold change /veh IRGQ (11745062_a_at) / RFU FAM174B (11720279_a_at) / Fold change /veh FAM174B (11720279_a_at) / RFU TMPRSS4 (11748680_a_at) / Fold change /veh TMPRSS4 (11748680_a_at) / RFU FAM212B (11763350_a_at) / Fold change /veh FAM212B (11763350_a_at) / RFU PLEKHG5 (11743358_a_at) / Fold change /veh PLEKHG5 (11743358_a_at) / RFU ZSCAN30 (11745921_a_at) / Fold change /veh ZSCAN30 (11745921_a_at) / RFU CMKLR1 (11741424_a_at) / Fold change /veh CMKLR1 (11741424_a_at) / RFU LOC101060620 /// MAPK8IP1 (11723275_at) / Fold change /veh LOC101060620 /// MAPK8IP1 (11723275_at) / RFU SPTSSB (11747773_x_at) / Fold change /veh SPTSSB (11747773_x_at) / RFU PRSS12 (11739890_at) / Fold change /veh PRSS12 (11739890_at) / RFU BIN1 (11741810_x_at) / Fold change /veh BIN1 (11741810_x_at) / RFU WNT11 (11732464_a_at) / Fold change /veh WNT11 (11732464_a_at) / RFU C10orf10 (11716521_a_at) / Fold change /veh C10orf10 (11716521_a_at) / RFU C5orf56 (11738089_at) / Fold change /veh C5orf56 (11738089_at) / RFU CYB561 (11721691_x_at) / Fold change /veh CYB561 (11721691_x_at) / RFU ANKRD19P (11752326_a_at) / Fold change /veh ANKRD19P (11752326_a_at) / RFU OR2T12 /// OR2T33 /// OR2T8 (11738714_s_at) / Fold change /veh OR2T12 /// OR2T33 /// OR2T8 (11738714_s_at) / RFU VCAN (11748164_a_at) / Fold change /veh VCAN (11748164_a_at) / RFU JSRP1 (11732532_at) / Fold change /veh JSRP1 (11732532_at) / RFU KRTAP10-11 (11738290_x_at) / Fold change /veh KRTAP10-11 (11738290_x_at) / RFU MYO3A (11730013_a_at) / Fold change /veh MYO3A (11730013_a_at) / RFU EBF3 (11725865_a_at) / Fold change /veh EBF3 (11725865_a_at) / RFU CAMK2N1 (11719241_x_at) / Fold change /veh CAMK2N1 (11719241_x_at) / RFU C5orf56 (11738088_a_at) / Fold change /veh C5orf56 (11738088_a_at) / RFU OLFML3 (11715873_a_at) / Fold change /veh OLFML3 (11715873_a_at) / RFU LOC100653217 /// NTM (11731650_a_at) / Fold change /veh LOC100653217 /// NTM (11731650_a_at) / RFU MAPK11 (11762145_a_at) / Fold change /veh MAPK11 (11762145_a_at) / RFU FIZ1 (11724087_x_at) / Fold change /veh FIZ1 (11724087_x_at) / RFU OASL (11726364_x_at) / Fold change /veh OASL (11726364_x_at) / RFU SOX15 (11748057_x_at) / Fold change /veh SOX15 (11748057_x_at) / RFU CD79A (11719716_a_at) / Fold change /veh CD79A (11719716_a_at) / RFU HIST1H1D (11736915_at) / Fold change /veh HIST1H1D (11736915_at) / RFU CASKIN2 (11723855_a_at) / Fold change /veh CASKIN2 (11723855_a_at) / RFU LOC730098 (11760151_x_at) / Fold change /veh LOC730098 (11760151_x_at) / RFU OR4N2 (11742367_at) / Fold change /veh OR4N2 (11742367_at) / RFU PRRT2 (11749266_a_at) / Fold change /veh PRRT2 (11749266_a_at) / RFU SNX32 (11753110_a_at) / Fold change /veh SNX32 (11753110_a_at) / RFU CDHR5 (11726645_a_at) / Fold change /veh CDHR5 (11726645_a_at) / RFU RCAN1 (11760418_a_at) / Fold change /veh RCAN1 (11760418_a_at) / RFU FAM167A (11723789_a_at) / Fold change /veh FAM167A (11723789_a_at) / RFU FAM26E (11764081_at) / Fold change /veh FAM26E (11764081_at) / RFU ISYNA1 (11749810_s_at) / Fold change /veh ISYNA1 (11749810_s_at) / RFU ACY1 (11761880_at) / Fold change /veh ACY1 (11761880_at) / RFU 11764098_at / Fold change /veh 11764098_at / RFU SAMD14 (11745864_x_at) / Fold change /veh SAMD14 (11745864_x_at) / RFU NPB (11741838_a_at) / Fold change /veh NPB (11741838_a_at) / RFU TMPRSS6 (11731388_a_at) / Fold change /veh TMPRSS6 (11731388_a_at) / RFU KRTAP10-2 (11738614_at) / Fold change /veh KRTAP10-2 (11738614_at) / RFU ARHGAP8 /// PRR5-ARHGAP8 (11727945_x_at) / Fold change /veh ARHGAP8 /// PRR5-ARHGAP8 (11727945_x_at) / RFU KRTAP5-7 /// NADSYN1 (11734609_at) / Fold change /veh KRTAP5-7 /// NADSYN1 (11734609_at) / RFU RASL12 (11751679_a_at) / Fold change /veh RASL12 (11751679_a_at) / RFU CDKN2B (11736163_a_at) / Fold change /veh CDKN2B (11736163_a_at) / RFU PRF1 (11729649_at) / Fold change /veh PRF1 (11729649_at) / RFU, ZNF638 /// ZNF638-IT1 / Fold change vs veh, ZNF638 /// ZNF638-IT1 / RFU, PANK3 / Fold change vs veh, PANK3 / RFU, SH3YL1 / Fold change vs veh, SH3YL1 / RFU, ZEB2 / Fold change vs veh, ZEB2 / RFU, NRIP1 / Fold change vs veh, NRIP1 / RFU, PTTG1IP / Fold change vs veh, PTTG1IP / RFU, CAPN2 / Fold change vs veh, CAPN2 / RFU, MED14 / Fold change vs veh, MED14 / RFU, SNORA58 / Fold change vs veh, SNORA58 / RFU, C1orf63 / Fold change vs veh, C1orf63 / RFU, LRRFIP1 / Fold change vs veh, LRRFIP1 / RFU, NDUFAF7 / Fold change vs veh, NDUFAF7 / RFU, SLC12A2 / Fold change vs veh, SLC12A2 / RFU, IBTK / Fold change vs veh, IBTK / RFU, ESF1 / Fold change vs veh, ESF1 / Fold change vs veh, TMEM50B / RFU, TAOK1 / Fold change vs veh, TAOK1 / RFU, ACBD3 / Fold change vs veh, ACBD3 / RFU, TMA16 / Fold change vs veh, TMA16 / RFU, RWDD3 / Fold change vs veh, RWDD3 / RFU, BCAT1 / Fold change vs veh, BCAT1 / RFU, EDEM3 / Fold change vs veh, EDEM3 / RFU, TMEM33 / Fold change vs veh, TMEM33 / RFU, WDR75 / Fold change vs veh, WDR75 / RFU, AHCTF1 / Fold change vs veh, AHCTF1 / RFU, TFRC / Fold change vs veh, TFRC / RFU, ZDHHC17 / Fold change vs veh, ZDHHC17 / RFU, NOM1 / Fold change vs veh, NOM1 / RFU, ARL8B / Fold change vs veh, ARL8B / RFU, ZBTB11 / Fold change vs veh, ZBTB11 / RFU, TAMM41 / Fold change vs veh, TAMM41 / RFU, KIAA1704 /// LOC100996395 / Fold change vs veh, KIAA1704 /// LOC100996395 / RFU, ING1 / Fold change vs veh, ING1 / RFU, TRMT61B / Fold change vs veh, TRMT61B / RFU, FUBP3 / Fold change vs veh, FUBP3 / RFU, TP53 / Fold change vs veh, TP53 / RFU, TNKS2 / Fold change vs veh, TNKS2 / RFU, ZFP14 / Fold change vs veh, ZFP14 / RFU, ACTR2 / Fold change vs veh, ACTR2 / RFU, PPP3R1 / Fold change vs veh, PPP3R1 / RFU, PIK3R1 / Fold change vs veh, PIK3R1 / RFU, HNRNPA1 / Fold change vs veh, HNRNPA1 / RFU, RNF170 / Fold change vs veh, RNF170 / RFU, ZNF28 / Fold change vs veh, ZNF28 / RFU, RNGTT / Fold change vs veh, RNGTT / RFU, OGT / Fold change vs veh, OGT / RFU, BRD1 / Fold change vs veh, BRD1 / RFU, MARS / Fold change vs veh, MARS / RFU, ZNF655 / Fold change vs veh, ZNF655 / RFU, FAHD1 / Fold change vs veh, FAHD1 / RFU, BDP1 / Fold change vs veh, BDP1 / RFU, LRRCC1 / Fold change vs veh, LRRCC1 / RFU, ARID1A / Fold change vs veh, ARID1A / RFU, ZNF146 / Fold change vs veh, ZNF146 / RFU, ZNF330 / Fold change vs veh, ZNF330 / RFU, GPN3 / Fold change vs veh, GPN3 / RFU, C9orf123 / Fold change vs veh, C9orf123 / RFU, N4BP2L2 / Fold change vs veh, N4BP2L2 / RFU, ARFIP1 / Fold change vs veh, ARFIP1 / RFU, FAM179B / Fold change vs veh, FAM179B / RFU, BCL10 / Fold change vs veh, BCL10 / RFU, UHRF1BP1L / Fold change vs veh, UHRF1BP1L / RFU, BET1 / Fold change vs veh, BET1 / RFU, CNOT2 / Fold change vs veh, CNOT2 / RFU, ZNF268 / Fold change vs veh, ZNF268 / Fold change vs veh, ZNF507 / RFU, DGCR2 / Fold change vs veh, DGCR2 / RFU, WDSUB1 / Fold change vs veh, WDSUB1 / Fold change vs veh, HSP90B1 /// MIR3652 / RFU, ADSS / Fold change vs veh, ADSS / RFU, GK / Fold change vs veh, GK / RFU, ZNF148 / Fold change vs veh, ZNF148 / RFU, TAF9 / Fold change vs veh, TAF9 / RFU, SLC1A5 / Fold change vs veh, SLC1A5 / RFU, SLMO2 / Fold change vs veh, SLMO2 / RFU, ABCC4 / Fold change vs veh, ABCC4 / RFU, LOC101060439 /// RAP1B / Fold change vs veh, LOC101060439 /// RAP1B / RFU, RFX7 / Fold change vs veh, RFX7 / RFU, GTPBP10 / Fold change vs veh, GTPBP10 / RFU, CNEP1R1 / Fold change vs veh, CNEP1R1 / RFU, BIVM-ERCC5 /// ERCC5 / Fold change vs veh, BIVM-ERCC5 /// ERCC5 / RFU, ILF3 / Fold change vs veh, ILF3 / RFU 11762660_at / Fold change /veh 11762660_at / RFU VCAN (11757783_s_at) / Fold change /veh VCAN (11757783_s_at) / RFU DDX43 (11728927_at) / Fold change /veh DDX43 (11728927_at) / RFU KRT8 (11758188_x_at) / Fold change /veh KRT8 (11758188_x_at) / RFU NKD1 (11759106_at) / Fold change /veh NKD1 (11759106_at) / RFU SRD5A1 (11742802_a_at) / Fold change /veh SRD5A1 (11742802_a_at) / RFU TPSAB1 /// TPSB2 (11721975_s_at) / Fold change /veh TPSAB1 /// TPSB2 (11721975_s_at) / RFU GSTM3 (11746129_a_at) / Fold change /veh GSTM3 (11746129_a_at) / RFU IL23R (11737362_x_at) / Fold change /veh IL23R (11737362_x_at) / RFU TMEM51 (11727254_a_at) / Fold change /veh TMEM51 (11727254_a_at) / RFU PIWIL2 (11732686_x_at) / Fold change /veh PIWIL2 (11732686_x_at) / RFU ORM1 (11744905_x_at) / Fold change /veh ORM1 (11744905_x_at) / RFU CCDC152 (11743942_at) / Fold change /veh CCDC152 (11743942_at) / RFU ECM1 (11717891_a_at) / Fold change /veh ECM1 (11717891_a_at) / RFU IL23R (11748794_a_at) / Fold change /veh IL23R (11748794_a_at) / RFU TNFAIP8L3 (11732012_x_at) / Fold change /veh TNFAIP8L3 (11732012_x_at) / RFU MBOAT4 (11741988_at) / Fold change /veh MBOAT4 (11741988_at) / RFU 11764193_at / Fold change /veh 11764193_at / RFU TMEM53 (11763286_at) / Fold change /veh TMEM53 (11763286_at) / RFU MAGEB2 (11727129_at) / Fold change /veh MAGEB2 (11727129_at) / RFU TMEM200A (11744735_a_at) / Fold change /veh TMEM200A (11744735_a_at) / RFU CCDC152 (11751479_a_at) / Fold change /veh CCDC152 (11751479_a_at) / RFU FAM211A (11726209_a_at) / Fold change /veh FAM211A (11726209_a_at) / RFU RGS16 (11746705_a_at) / Fold change /veh RGS16 (11746705_a_at) / RFU VCAN (11755009_s_at) / Fold change /veh VCAN (11755009_s_at) / RFU RHOB (11743442_s_at) / Fold change /veh RHOB (11743442_s_at) / RFU RGS16 (11720943_a_at) / Fold change /veh RGS16 (11720943_a_at) / RFU RGS16 (11720944_at) / Fold change /veh RGS16 (11720944_at) / RFU, VPS4B / Fold change vs veh, VPS4B / RFU, CREB1 / Fold change vs veh, CREB1 / RFU, DNAJC13 / Fold change vs veh, DNAJC13 / RFU, GNAQ / Fold change vs veh, GNAQ / RFU, CDK5R1 / Fold change vs veh, CDK5R1 / RFU, ZRANB3 / Fold change vs veh, ZRANB3 / RFU, CUL4A / Fold change vs veh, CUL4A / RFU, CCNY / Fold change vs veh, CCNY / RFU, UFL1 / Fold change vs veh, UFL1 / RFU, COG3 / Fold change vs veh, COG3 / RFU, DIAPH2 / Fold change vs veh, DIAPH2 / RFU, SKA2 / Fold change vs veh, SKA2 / RFU, AFF3 / Fold change vs veh, AFF3 / RFU, LMF1 / Fold change vs veh, LMF1 / RFU, IPO11 / Fold change vs veh, IPO11 / RFU, DFFB / Fold change vs veh, DFFB / RFU, FOXP1 / Fold change vs veh, FOXP1 / RFU, CARD8 / Fold change vs veh, CARD8 / RFU, STRN3 / Fold change vs veh, STRN3 / RFU, ADK / Fold change vs veh, ADK / RFU, RASSF2 / Fold change vs veh, RASSF2 / RFU, WIPF1 / Fold change vs veh, WIPF1 / RFU, LARP1B / Fold change vs veh, LARP1B / RFU, RASA1 / Fold change vs veh, RASA1 / RFU, RB1 / Fold change vs veh, RB1 / RFU, PPFIA1 / Fold change vs veh, PPFIA1 / RFU, MAT2A / Fold change vs veh, MAT2A / RFU, CCT5 / Fold change vs veh, CCT5 / RFU, WDR92 / Fold change vs veh, WDR92 / RFU, CUX1 / Fold change vs veh, CUX1 / RFU, TTC7A / Fold change vs veh, TTC7A / RFU, TMEM135 / Fold change vs veh, TMEM135 / RFU, DEPTOR / Fold change vs veh, DEPTOR / RFU, CPM / Fold change vs veh, CPM / RFU, DNAJB6 / Fold change vs veh, DNAJB6 / RFU, CACNA2D3 / Fold change vs veh, CACNA2D3 / RFU, DTX4 / Fold change vs veh, DTX4 / RFU, TFCP2 / Fold change vs veh, TFCP2 / RFU, GMCL1 /// GMCL1P1 / Fold change vs veh, GMCL1 /// GMCL1P1 / RFU, AEBP2 / Fold change vs veh, AEBP2 / RFU, SNHG1 /// SNORD22 /// SNORD25 /// SNORD26 /// SNORD27 /// SNORD28 /// SNORD29 /// SNORD31 / Fold change vs veh, SNHG1 /// SNORD22 /// SNORD25 /// SNORD26 /// SNORD27 /// SNORD28 /// SNORD29 /// SNORD31 / Fold change (Aza/veh), C12orf56 (ProbeSet 11735607_a_at) / Fold change (ACY-1035/veh), C12orf56 (ProbeSet 11735607_a_at) / Fold change (Aza/veh), FGFR1OP (ProbeSet 11751329_s_at) / Fold change (ACY-1035/veh), FGFR1OP (ProbeSet 11751329_s_at) / Fold change (Aza/veh), VPS36 (ProbeSet 11739960_a_at) / Fold change (ACY-1035/veh), VPS36 (ProbeSet 11739960_a_at) / RFU SYPL1 (11715823_x_at) / Fold change /veh SYPL1 (11715823_x_at) / RFU IGFBP7 (11715501_s_at) / Fold change /veh IGFBP7 (11715501_s_at) / RFU REEP3 (11722064_at) / Fold change /veh REEP3 (11722064_at) / RFU IGLL1 (11728026_x_at) / Fold change /veh IGLL1 (11728026_x_at): dose or concentration left out as unconfirmed
Settings: ProbeSet 11734782_x_at; LIST D

## Nc1ccc(-c2cccs2)cc1NC(=O)c1ccc2c(c1)cc(C1CC1)n2CCN1CCOCC1 [ACY-1035]
  Fold change vs veh, WDR92: 0.89
